Data: US20240041042A1, “1-(PYRIDYL)-5-AZINYLPYRAZOLE DERIVATIVES, AND THEIR USE FOR CONTROL OF UNDESIRED PLANT GROWTH” (Bayer Aktiengesellschaft, priority 2020, published 2024)
Where two headings read alike, the source gives them in different places.

Columns and labels:
Type in all cases: in vivo
[1] = test system: Alopecurus myosuroides (ALOMY); test: Pre-emergence herbicidal action against ALOMY; conditions: 320 g/ha; scored visually after about 3 weeks; 100% = plants have died
How it was run: (§1)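 Pre-emergence soil-surface spray of compound, formulated as wettable powder or emulsion concentrate, in aqueous suspension or emulsion with 0.5% additive (600 l/ha; rate 320 g/ha or less). Activity rated visually after roughly 3 weeks in the greenhouse as a percentage of untreated controls, 0% meaning no difference.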

[2] = test system: Oryza sativa (ORYSA); conditions: crop plant compatibility, effect in comparison to untreated controls
How it was run: (§2)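 Test crops were treated 2 to 3 weeks after sowing, once they reached one leaf, by spraying compound in water with 0.5% additive at 600 l/ha. Visual scoring compared them with untreated controls roughly 3 weeks on, and appendices a, b and c denote different doses.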

[3] = test system: Zea mays (ZEAMX); conditions: crop plant compatibility, 80 g/ha, effect vs untreated controls
How it was run: as §2

[4] = test system: Setaria viridis (SETVI); test: Post-emergence herbicidal action against SETVI; conditions: dosage 320 g/ha
How it was run: (§3)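 Doses of 320 g/ha or lower, suffixes a, b and c marking different dosages, were applied post-emergence at the one-leaf stage in 600 l/ha water with 0.5% additive. Damage was assessed visually after about 3 weeks in the greenhouse.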

[5] = test system: Amaranthus retroflexus (AMARE); test: Pre-emergence herbicidal action against AMARE; conditions: visual scoring after about 3 weeks vs untreated controls
How it was run: as §1

[6] = test system: Echinochloa crus-galli (ECHCG); test: Post-emergence herbicidal action against ECHCG
How it was run: as §3

[7] = test system: Lolium rigidum (LOLRI); test: Pre-emergence herbicidal action against LOLRI
How it was run: as §1

[8] = test system: Polygonum convolvulus (POLCO); test: Pre-emergence herbicidal action against POLCO
How it was run: as §1

[9] = test system: Viola tricolor (VIOTR); test: Pre-emergence herbicidal action against VIOTR
How it was run: as §1

[10] = test system: Verconica persica (VERPE); test: Post-emergence herbicidal action against VERPE; conditions: 320 g/ha, VERPE
How it was run: as §3

[11] = test system: Abutilon theophrasti (ABUTH); test: Post-emergence herbicidal action against ABUTH; conditions: 320 g/ha, visual rating about 3 weeks after treatment vs untreated controls (100% = plants have died, 0% = like control plants)
How it was run: as §3

[12] = test system: Oryza sativa (ORYSA); conditions: pre-emergence, 80 g/ha, crop plant compatibility, in comparison to untreated controls
How it was run: (§4)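 Scoring: visual, % of untreated control, about 3 weeks after a pre-emergence application to the soil surface. Application used WP or EC formulations diluted in water with 0.5% additive at 600 l/ha; dosage levels are marked by suffixes a, b and c.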

[13] = test system: Brassica napus (BRSNW); conditions: 80 g/ha, crop plant compatibility, in comparison to untreated controls
How it was run: as §4

[14] = test system: Zea mays (ZEAMX); conditions: pre-emergence, crop plant compatibility, in comparison to untreated controls
How it was run: as §4

[15] = test system: Avena fatua (AVEFA); test: Post-emergence herbicidal action against AVEFA; conditions: 320 g/ha, visual rating about 3 weeks after treatment
How it was run: as §3

[16] = test system: Alopecurus myosuroides (ALOMY); test: Post-emergence herbicidal action against ALOMY; conditions: visual rating about 3 weeks after treatment vs untreated controls (100% = plants have died, 0% = like control plants)
How it was run: as §3

[17] = test system: Viola tricolor (VIOTR); test: Post-emergence herbicidal action against VIOTR
How it was run: as §3

[18] = test system: Digitaria sanguinalis (DIGSA); test: Pre-emergence herbicidal action against DIGSA
How it was run: as §1

[19] = test system: Polygonum convolvulus (POLCO); test: Post-emergence herbicidal action against POLCO; conditions: dosage 320 g/ha
How it was run: as §3

[20] = test system: Pharbitis purpurea (PHBPU); test: Post-emergence herbicidal action against PHBPU
How it was run: as §3

[21] = test system: Amaranthus retroflexus (AMARE); test: Post-emergence herbicidal action against AMARE
How it was run: as §3

[22] = test system: Digitaria sanguinalis (DIGSA); test: Post-emergence herbicidal action against DIGSA; conditions: 320 g/ha, visual rating about 3 weeks after treatment
How it was run: as §3

[23] = test system: Echinochloa crus-galli (ECHCG); test: Pre-emergence herbicidal action against ECHCG; conditions: dosage 320 g/ha
How it was run: as §1

[24] = test system: Lolium rigidum (LOLRI); test: Post-emergence herbicidal action against LOLRI
How it was run: as §3

[25] = test system: Pharbitis purpurea (PHBPU); test: Pre-emergence herbicidal action against PHBPU; conditions: dosage 320 g/ha
How it was run: as §1

[26] = test system: Matricaria inodora (MATIN); test: Post-emergence herbicidal action against MATIN; conditions: dosage 320 g/ha
How it was run: as §3

[27] = test system: Setaria viridis (SETVI); test: Pre-emergence herbicidal action against SETVI; conditions: dosage 320 g/ha
How it was run: as §1

[28] = test system: Matricaria inodora (MATIN); test: Pre-emergence herbicidal action against MATIN
How it was run: as §1

[29] = test system: Triticum aestivum (TRZAS); conditions: crop plant compatibility, effect vs untreated controls
How it was run: as §2

[30] = test system: Verconica persica (VERPE); test: Pre-emergence herbicidal action against VERPE; conditions: dosage 320 g/ha
How it was run: as §1

[31] = test system: Avena fatua (AVEFA); test: Pre-emergence herbicidal action against AVEFA; conditions: 320 g/ha, visual scoring after about 3 weeks vs untreated controls
How it was run: as §1

[32] = 320 g/ha, visual rating about 3 weeks after treatment
[33] = 80 g/ha, visual rating about 3 weeks after treatment vs untreated controls (100% = plants have died, 0% = like control plants)

| Post-emergence action against ORYSA in % ([2]; 80 g/ha) [%] | Post-emergence action against ZEAMX in % [3] [%] | Pre-emergence action against ORYSA in % [12] [%] | Pre-emergence action against BRSNW in % [13] [%] | Pre-emergence action against ZEAMX in % ([14]; 80 g/ha) [%] | Compound | Pre-emergence action against ALOMY [1] [%] | Post-emergence action against SETVI in % [4] [%] | Pre-emergence action against AMARE in % ([5]; 80 g/ha) [%] | Pre-emergence action against AMARE in % ([5]; 320 g/ha) [%] | Post-emergence action against ECHCG in % ([6]; dosage 320 g/ha) [%] | Pre-emergence action against LOLRI in % ([7]; dosage 320 g/ha) [%] | Pre-emergence action against POLCO in % ([8]; dosage 320 g/ha) [%] | Pre-emergence action against VIOTR in % ([9]; 320 g/ha, Viola tricolor) [%] | Post-emergence action against VERPE in % [10] [%] | Post-emergence action against POLCO in % [19] [%] | Post-emergence action against PHBPU in % ([20]; dosage 320 g/ha) [%] | Post-emergence action against AMARE in % [21, 32] [%] | Post-emergence action against LOLRI in % ([24]; dosage 320 g/ha) [%] | Pre-emergence action against SETVI in % [27] [%] | Pre-emergence action against MATIN in % ([28]; dosage 320 g/ha) [%] | other results |
| --- | --- | --- | --- | --- | --- | --- | --- | --- | --- | --- | --- | --- | --- | --- | --- | --- | --- | --- | --- | --- | --- |
|  |  |  | 20 | 10 | COC(=O)COc1nn(-c2nc(F)ccc2F)c(-c2ccc(F)nc2)c1C1CC1 [Example I-300] |  | 80 |  | 90 | 90 | 90 |  | 90 | 80 |  | 80 | 80 | 90 | 90 | 80 | Post-emergence action against ALOMY in % ([16]; 80 g/ha): 80%; Post-emergence action against ALOMY in % ([16]; 320 g/ha): 90%; Post-emergence action against ECHCG in % ([6]; dosage 80 g/ha): 80%; Post-emergence action against DIGSA in % [22]: 80%; Post-emergence action against VIOTR in % ([17]; 80 g/ha): 80%; Post-emergence action against VIOTR in % ([17]; 320 g/ha): 90%; Pre-emergence action against DIGSA in % ([18]; 80 g/ha, visual scoring after about 3 weeks vs untreated controls): 90%; Pre-emergence action against DIGSA in % ([18]; dosage 320 g/ha): 100%; Pre-emergence action against LOLRI in % ([7]; dosage 80 g/ha): 80%; Pre-emergence action against ECHCG in % [23]: 90%; Post-emergence action against LOLRI in % ([24]; dosage 80 g/ha): 90%; Pre-emergence action against PHBPU in % [25]: 80%; Post-emergence action against MATIN in % [26]: 80% |
| 0 | 10 | 20 | 20 |  | Cc1cccc(-n2nc(OCC(=O)O)c(Cl)c2-c2ccc(F)nc2)n1 [Example I-351] |  | 80 |  | 80 | 80 |  | 80 |  | 80 | 80 | 80 | 80 | 80 | 100 | 80 | Post-emergence action against TRZAS in % ([29]; 80 g/ha): 0%; Post-emergence action against TRZAS in % ([29]; 320 g/ha): 10%; Pre-emergence action against VERPE in % [30]: 80%; Pre-emergence action against AVEFA in % [31]: 80%; Pre-emergence action against POLCO in % ([8]; dosage 80 g/ha): 80%; Pre-emergence action against ECHCG in % [23]: 90%; Post-emergence action against AMARE in % [21, 33]: 80% |
| 0 | 0 |  | 0 | 0 | COC(=O)CNC(=O)COc1nn(-c2ccccn2)c(-c2ccc(F)nc2)c1F [Example I-377] | 80 | 90 | 80 | 90 | 90 |  |  |  | 80 | 80 | 90 | 90 |  | 90 | 90 | Post-emergence action against TRZAS in % ([29]; 80 g/ha): 0%; Pre-emergence action against VERPE in % [30]: 80%; Post-emergence action against ECHCG in % ([6]; dosage 80 g/ha): 80%; Post-emergence action against AMARE in % [21, 33]: 80%; Pre-emergence action against ZEAMX in % ([14]; 320 g/ha): 0%; Pre-emergence action against MATIN in % ([28]; dosage 80 g/ha): 80% |

Further lines, the compound ahead of its results:

| Compound | Post-emergence action against ORYSA in % ([2]; 80 g/ha) [%] | Post-emergence action against ZEAMX in % [3] [%] | Pre-emergence action against ORYSA in % [12] [%] | Pre-emergence action against BRSNW in % [13] [%] | Pre-emergence action against ZEAMX in % ([14]; 80 g/ha) [%] | Pre-emergence action against ALOMY [1] [%] | Post-emergence action against SETVI in % [4] [%] | Pre-emergence action against AMARE in % ([5]; 80 g/ha) [%] | Pre-emergence action against AMARE in % ([5]; 320 g/ha) [%] | Post-emergence action against ECHCG in % ([6]; dosage 320 g/ha) [%] | Pre-emergence action against LOLRI in % ([7]; dosage 320 g/ha) [%] | Pre-emergence action against POLCO in % ([8]; dosage 320 g/ha) [%] | Pre-emergence action against VIOTR in % ([9]; 320 g/ha, Viola tricolor) [%] | Post-emergence action against VERPE in % [10] [%] | Post-emergence action against POLCO in % [19] [%] | Post-emergence action against PHBPU in % ([20]; dosage 320 g/ha) [%] | Post-emergence action against AMARE in % [21, 32] [%] | Post-emergence action against LOLRI in % ([24]; dosage 320 g/ha) [%] | Pre-emergence action against SETVI in % [27] [%] | Pre-emergence action against MATIN in % ([28]; dosage 320 g/ha) [%] | other results |
| --- | --- | --- | --- | --- | --- | --- | --- | --- | --- | --- | --- | --- | --- | --- | --- | --- | --- | --- | --- | --- | --- |
| COCCOC(=O)COc1nn(-c2ncccc2C(F)(F)F)c(-c2ccc(F)nc2)c1Br [Example I-378] | 10 | 10 | 0 | 0 | 0 | 80 | 80 | 80 | 90 | 80 | 90 | 80 | 90 | 80 |  |  |  |  |  |  | Post-emergence action against ABUTH in % [11]: 80% |
| COC(=O)CCOC(=O)[C@@H](C)Oc1nn(-c2ccccn2)c(-c2ccc(Cl)nc2)c1Cl [Example I-245] | 0 |  |  | 0 | 0 | 90 |  |  | 80 |  | 90 |  | 80 |  | 80 | 90 | 80 |  |  |  | Post-emergence action against AVEFA in % [15]: 80%; Post-emergence action against ALOMY in % ([16]; 320 g/ha): 80%; Post-emergence action against VIOTR in % ([17]; 320 g/ha): 80%; Pre-emergence action against DIGSA in % ([18]; dosage 320 g/ha): 90%; Post-emergence action against PHBPU in % ([20]; dosage 80 g/ha): 80% |
| COC(=O)CCOC(=O)COc1nn(-c2ncccc2C(F)(F)F)c(-c2ccc(F)nc2)c1Br [Example I-381] | 20 | 0 | 20 | 0 | 0 | 90 |  |  | 90 | 80 | 90 | 80 | 90 | 80 |  |  |  | 80 |  |  | Post-emergence action against ORYSA in % ([2]; 320 g/ha): 20%; Pre-emergence action against VIOTR in % ([9]; dosage 80 g/ha): 80% |
